ChEMBL document CHEMBL1142892, “Synthesis and antitumor activity of indolylpyrimidines: marine natural product meridianin D analogues” (Bioorg Med Chem, 2007)
Converted amounts (≈) assume the structure as drawn. The source made the active and inactive calls. No cut-off for these calls is given here.

How the values were obtained:
Format in all cases: functional, cell-based
U-251 = experiment: Cytotoxicity against human U251 cells after 48 hrs by SRB assay
MCF7 = experiment: Cytotoxicity against human MCF7 after 48 hrs cells by SRB assay
HepG2 = experiment: Cytotoxicity against human HEPG2 cells after 48 hrs by SRB assay
HeLa = experiment: Cytotoxicity against human HeLa cells after 48 hrs by SRB assay

With `N/N=C(\N)c1cnc(N)nc1-c1c[nH]c2ccccc12` the Activity (U-251) was “inactive”, the IC50 (MCF7) was 0.25 mg/L (≈ 0.935 µM) and the Activity (HepG2) was “inactive”.
In the case of `Nc1ncc(C(=O)O)c(-c2c[nH]c3ccccc23)n1`, the Activity (U-251) is reported as “inactive”, the IC50 (MCF7) is reported as 0.75 mg/L (≈ 2.95 µM) and the Activity (HepG2) is reported as “inactive”.
With `Nc1nccc(-c2c[nH]c3ccccc23)n1` the Activity (U-251) was “inactive” and the Activity (HepG2) was “inactive”.
In the case of `N#Cc1cnc(N)nc1-c1c[nH]c2ccccc12`, the Activity (U-251) is reported as “inactive”, the IC50 (MCF7) is reported as 0.85 mg/L (≈ 3.61 µM) and the IC50 (HeLa) is reported as 2.65 mg/L (≈ 11.3 µM). For the same compound, the Activity (HepG2) was “inactive”.
